The subject of data set [1] is P388/0 tumor cells (lymphocytic leukemia). The data set can be described thus: Lymphocytic Leukemia P388/0 Test (survival of tumor-bearing mice). Type of data set: in vivo, mouse (CD2-F1). To be noted: ip, days 1, 5, 9; at optimal dose (mg/kg): 1B 121; 1C 115; 2 100; 3 100; 6G 65; 18B 88; 19H 110; 6H 60; 7 110; 9 300; 10B 1013; 11C 150; 12G 90; 5F 225; 13D 303; 14 196; 15B 250; 16 1012; 4B 180; active if ≥120%. The source says: (§1) Methods for evaluating the antitumor activity of these compounds are essentially those used in the Tumor Panel by the Developmental Therapeutics Program, Division of Cancer Treatment, National Cancer Institute, A. Goldin, et al., Methods in Cancer Research, Vol. XVI, p. 165, Academic Press (1979). Some modifications, in dose level and schedule have been made to increase the testing efficiency.
(§2) CD2-F1 mice, of the same sex, weighing 20±3 g, are used for this test. Control and test animals are injected intraperitoneally with a suspension of ~10^6 viable P388/0 tumor cells on day 0. In each test, several dose levels which bracket the LD20 of the compound are evaluated; each dose level group contains six animals. The test compounds are prepared either in physiologic saline containing 0.05% Tween 80 or distilled water containing 5% dextrose and are administered intraperitoneally on days 1, 5, and 9 relative to tumor implant. Doses are on a mg/kg basis according to individual animals' body weights. The day of death for each animal is recorded, the median identified for each group and the ratios of median survival time for treated (T)/control (C) groups are calculated. The criterion for activity is T/C×100≥120%.

The nature of the next data set: LD20 in the P388/0 test. To be noted: ip, days 1, 5 and 9. Type of data set: in vivo, mouse (CD2-F1). On the procedure:
as §2
^A Values in parentheses are the highest nontoxic dose where the
LD20 was not determined.

A further data set deals with B16 melanoma cells. The experiment in a line: Melanotic Melanoma B16 test (survival). The format is in vivo, mouse (B6C3-F1). The settings on record: B16 ip; drug ip days 1, 5, 9; dose (mg/kg): 1C 100; 6G 50; 3 70; 2 75; 18B 70; active if >125%.
Text: as §1
B6C3-F1 mice of the same sex, weighing 20±3 g, are used for this test. A suspension of B16 cells is prepared from a non-necrotic portion of solid tumor tissue obtained from a passage mouse. One gram of tumor is homogenized in 9 mL ice-cold Earle's salts solution and filtered through 1000 mesh screen to remove debris. 0.5 mL of the resulting brei is injected intraperitoneally into each animal. Dosing is carried out as in the P388/0 and L1210 tests. Days of death are recorded for a 60 day period and T/C ratio calculated as in the P388/0 and L1210 tests. The criterion for activity is T/C×100>125%.

The subject of another data set is Colon 38 carcinoma. The data set can be described thus: Colon 38 Carcinoma Test (tumor weight). The format is in vivo, mouse (tumor from C57B1/6). To be noted: ip, days 1, 5, 9; dose 120 mg/kg; day 20; active if ≤42%.
Text: as §1
This chemically-induced tumor arose in a C57B1/6 mouse and is maintained as a solid tumor in that mouse strain. The subcutaneously growing solid tumor is aseptically excised from passage mice and placed in sterile saline. The tumor is trimmed free of visible necrotic and connective tissue, then divided into 2-3 mm cubes. A cube is implanted subcutaneously in the ventral thoracic region with a sterile trochar on day 0. In each test several dose levels which bracket the LD20 for the compound are evaluated. Ten animals are included in each dose level group and thirty animals in the untreated control group. The test compounds are prepared either in physiologic saline containing 0.05% Tween 80 or distilled water containing 5% dextrose and are administered intraperitoneally on days 1, 5 and 9 after tumor implant. […] At day 20, the animals are sacrificed and the longest (L) and shortest (W) dimensions of each tumor measured with vernier calipers. Tumor weight is calculated from the formula [formula] […]

Here are results for 19 molecules from US4719048A, “Crysene compound” (Burroughs Wellcome Co., priority 1984, dated 1988).

SMILES strings stand for the structures. Counter-ions that a name gives are not always drawn.

Turning to `C[C@@H](O)C(C)(NCc1cc2c3ccccc3ccc2c2ccccc12)[C@@H](C)O` (relative stereo) [Example 5F], in data set [1], the “T/C × 100% (Excluding 30 Day Survivors), median survival time treated/control” value is reported as “+255%”. In the case of `C[C@H](O)[C@@](C)(CO)NCc1cc2c3ccccc3ccc2c2ccccc12` (relative stereo) [Example 6G, (+-)(2R*,3S*)-2-((6-chrysenylmethyl)amino)-2-methyl-1,3-butanediol hydrochloride.1/3H2 O], the “T/C × 100% (Excluding 30 Day Survivors), median survival time treated/control” value in data set [1] was “+245%”. The LD20 in “LD20 in the P388/0 test” was 53 mg/kg. The “T/C × 100% Excluding 60 day Survivors” value with B16 melanoma cells is on record as “+160%”. Turning to `CS(=O)(=O)O.C[C@H](O)[C@@](C)(CO)NCc1cc2c3ccccc3ccc2c2ccccc12` (relative stereo) [Example 6H, (+-)(2R*,3S*)-2-((6-chrysenylmethyl)amino)-2-methyl-1,3-butanediol methanesulfonate], the “T/C × 100% (Excluding 30 Day Survivors), median survival time treated/control” value in data set [1] is “+235%”. Moreover, in the data set “LD20 in the P388/0 test”, the LD20 turned out to be 60 mg/kg. For `C[C@@H](O)[C@@](C)(CO)NCc1cc2c3ccccc3ccc2c2ccccc12.Cl` (relative stereo) [Example 7, (+-)-(2R*,3R*)-2-((6-chrysenylmethyl)amino)-2-methyl-1,3-butanediol hydrochloride], in that order: “+285%” and 100 mg/kg.

In “LD20 in the P388/0 test”, `CC(CO)(CO)NCc1cc2c3ccccc3ccc2c2ccccc12.Cl` [Example 1B, 2-((6-chrysenylmethyl)amino)-2-methyl-1,3-propanediol hydrochloride] showed an LD20 of 140 mg/kg.

As for `CC(CO)(CO)NCc1cc2c3ccccc3ccc2c2ccccc12` [Example 1C, 2-((6-chrysenylmethyl)amino)-2-methyl-1,3-propanediol methanesulfonate], the “T/C × 100% (tumor weight)” value in the data set with Colon 38 carcinoma came to 36%.

The molecule `Cl.OCC(CO)(CO)NCc1cc2c3ccccc3ccc2c2ccccc12` [Example 2, 2-((6-chrysenylmethyl)amino)-2-hydroxymethyl-1,3-propanediol hydrochloride] had an LD20 in “LD20 in the P388/0 test” of 100 mg/kg.

Consider `CCC(CO)(CO)NCc1cc2c3ccccc3ccc2c2ccccc12.Cl` [Example 3, 2-((6-chrysenylmethyl)amino)-2-ethyl-1,3-propanediol hydrochloride], for which the LD20 in the data set “LD20 in the P388/0 test” was 100 mg/kg. Take `CC(CO)(CO)NCc1cc2c3ccccc3c(Cl)cc2c2ccccc12` [Example 4B, 2-(((12-chloro-6-chrysenyl)methyl)amino)-2-methyl-1,3-propanediol methanesulfonate.1/3H2 O]: in data set [1], the “T/C × 100% (Excluding 30 Day Survivors), median survival time treated/control” value is on record as “+155%”. The molecule further had an LD20 in the data set “LD20 in the P388/0 test” of 180 mg/kg. For the molecule `COCC(C)(CO)NCc1cc2c3ccccc3ccc2c2ccccc12.Cl` (stereo not drawn) [Example 9D, 3-methoxy-2-((6-chrysenylmethyl)amino)-2-methyl-1-propanol hydrochloride], the “T/C × 100% (Excluding 30 Day Survivors), median survival time treated/control” value in data set [1] is recorded as “+181%”. The same measure, in the same setting: to `O[C@@H]1CCC[C@H](O)[C@H]1NCc1cc2c3ccccc3ccc2c2ccccc12` [Example 10B, (1α,2β,3α)-2-((6-chrysenylmethyl)amino)-1,3-cyclohexanediol hydrochloride] belongs “+205%”.

The molecule `CC(C)C(CO)(CO)NCc1cc2c3ccccc3ccc2c2ccccc12` [Example 11C, 2-((6-chrysenylmethyl)amino)-2-isopropyl-1,3-propanediol hydrochloride.H2 O] registered an LD20 in the data set “LD20 in the P388/0 test” of 150 mg/kg. Turning to `CC(CO)(CCO)NCc1cc2c3ccccc3ccc2c2ccccc12` (stereo not drawn) [Example 12G, 2-((6-chrysenylmethyl)amino)-2-methyl-1,4-butanediol hydrochloride.1/3EtOH], the LD20 in “LD20 in the P388/0 test” was found to be 90 mg/kg.

As to `CS(=O)(=O)O.C[C@H](O)C(NCc1cc2c3ccccc3ccc2c2ccccc12)[C@@H](C)O` (stereo partly drawn) [Example 13D, meso-3-((6-chrysenylmethyl)amino)-2,4-pentanediol methanesulfonate], the “T/C × 100% (Excluding 30 Day Survivors), median survival time treated/control” value in data set [1] is on record as “+200%”.

Consider `OCC(CO)NCc1cc2c3ccccc3ccc2c2ccccc12` [Example 14, 2-((6-chrysenylmethyl)amino)-1,3-propanediol methanesulfonate], for which the LD20 in “LD20 in the P388/0 test” turned out to be 160 mg/kg. Molecule `CCc1cc2c3ccccc3c(CNC(C)(CO)CO)cc2c2ccccc12` [Example 15B, 2-(((12-ethyl-6-chrysenyl)methyl)amino)-2-methyl-1,3-propanediol methanesulfonate] gave an LD20 in “LD20 in the P388/0 test” of 150 mg/kg.

As for `CC(=O)OCC(C)(COC(C)=O)NCc1cc2c3ccccc3ccc2c2ccccc12` [Example 16, 2-((6-chrysenylmethyl)amino)-2-methyl-1,3-propanediol diacetate], the “T/C × 100% (Excluding 30 Day Survivors), median survival time treated/control” value in data set [1] is given as “+145%”.

Take `CC(C)(CO)NCc1cc2c3ccccc3ccc2c2ccccc12.Cl` [Example 18B, 2-((6-chrysenylmethyl)amino)-2-methyl-1-propanol hydrochloride]: the LD20 in the data set “LD20 in the P388/0 test” is on record as 80 mg/kg. On the same count and under the same terms, to `CC(CO)(CO)NCc1ccc2ccc3c4ccccc4ccc3c2c1` [Example 19H, 2-((3-chrysenylmethyl)amino)-2-methyl-1,3-propanediol methanesulfonate] belongs 150 mg/kg.
